# Paper PMC6744458, “A ribose-functionalized NAD^+ with unexpected high activity and selectivity for protein poly-ADP-ribosylation” (Nature Communications, 2019)
# Columns and labels:
# Format in all cases: biochemical
# [1] = biological target: T1, catalytic domain of human PARP5a (Homo sapiens, UniProt O95271); experiment: automodification, click biotin labelling, streptavidin-HRP immunoblot; conditions: […] analogue, […] MgCl2, pH […]
# T1 construct: gene TNKS; catalytic domain residues 1093-1327, C-terminal His6, E. coli BL21 (DE3)
# T1 sequence (O95271 1093-1327): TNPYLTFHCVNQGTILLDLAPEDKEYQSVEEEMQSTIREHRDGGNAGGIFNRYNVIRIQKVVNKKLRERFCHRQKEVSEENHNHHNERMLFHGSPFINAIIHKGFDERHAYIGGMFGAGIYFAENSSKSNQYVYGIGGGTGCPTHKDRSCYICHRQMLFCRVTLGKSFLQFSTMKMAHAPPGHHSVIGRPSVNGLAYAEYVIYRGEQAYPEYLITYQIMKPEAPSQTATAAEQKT
# [2] = biological target: T2, catalytic domain of human PARP10 (Homo sapiens, UniProt Q53GL7); experiment: as above; conditions: […] analogue, […] MgCl2, pH […]
# T2 construct: catalytic domain residues 809-1017, N-terminal His6, E. coli BL21 (DE3)
# T2 sequence (Q53GL7 809-1017): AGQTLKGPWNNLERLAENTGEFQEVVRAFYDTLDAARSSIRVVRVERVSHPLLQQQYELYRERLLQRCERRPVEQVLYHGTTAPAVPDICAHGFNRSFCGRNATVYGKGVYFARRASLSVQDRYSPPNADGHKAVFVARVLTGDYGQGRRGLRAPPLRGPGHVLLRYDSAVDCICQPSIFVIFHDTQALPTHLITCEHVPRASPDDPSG
# human NRK1 = biological target: T3, human NRK1 (Homo sapiens, UniProt Q9NWW6); experiment: HPLC conversion; conditions: […] NR6, […] ATP, […] MgCl2, pH […], room temperature
# T3 construct: gene NMRK1; full length, C-terminal His6, pET-28a, E. coli BL21 (DE3)
# T3 sequence (Q9NWW6 1-199): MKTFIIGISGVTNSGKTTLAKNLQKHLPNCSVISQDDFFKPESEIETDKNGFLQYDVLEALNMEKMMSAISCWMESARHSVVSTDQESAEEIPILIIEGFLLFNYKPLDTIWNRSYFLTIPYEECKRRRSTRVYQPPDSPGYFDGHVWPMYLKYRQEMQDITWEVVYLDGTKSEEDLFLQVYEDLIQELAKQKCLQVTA
SMILES,"automodification, click biotin labelling, streptavidin-HRP immunoblot [1]","automodification, click biotin labelling, streptavidin-HRP immunoblot [2]",HPLC conversion (human NRK1)
"C#Cc1nc(N)c2ncn([C@@H]3O[C@H](COP(=O)(O)OP(=O)([O-])OC[C@H]4O[C@@H]([n+]5cccc(C(N)=O)c5)[C@H](O)[C@@H]4O)[C@@H](O)[C@H]3O)c2n1 [2-a-NAD^+, 2-alkyne-NAD^+]",6-a-NAD^+ and 2-a-NAD^+ that displayed strong automodification activities for both enzymes,6-a-NAD^+ and 2-a-NAD^+ that displayed strong automodification activities for both enzymes,–
"C#CCNc1ncnc2c1ncn2[C@@H]1O[C@H](COP(=O)(O)OP(=O)([O-])OC[C@H]2O[C@@H]([n+]3cccc(C(N)=O)c3)[C@H](O)[C@@H]2O)[C@@H](O)[C@H]1O [6-a-NAD^+, 6-alkyne-NAD^+]",6-a-NAD^+ and 2-a-NAD^+ that displayed strong automodification activities for both enzymes,6-a-NAD^+ and 2-a-NAD^+ that displayed strong automodification activities for both enzymes,–
[N-]=[N+]=N[C@H]1[C@@H](O)[C@H]([n+]2cccc(C(N)=O)c2)O[C@@H]1CO [NR6],–,–,NRK1 that could only catalyze conversion of NR5 and NR6
